Here are results for 1 compound from patent US9803223B2, “Coryneform bacterium transformant with improved aniline productivity and process for producing aniline using the same” (RESEARCH INSTITUTE OF INNOVATIVE TECHNOLOGY FOR THE EARTH, priority 2013, dated 2017).

“Also recorded” adds a separate entry of the source.

The test system of test [1] is Corynebacterium glutamicum R. Put plainly: Influence of aniline addition on aerobic growth. In kind it is cell-based. The following applies: for growth of Corynebacterium glutamicum: aerobic culture 33° C., OD610. On the procedure:
Corynebacterium glutamicum R was applied to A agar medium (2 g of (NH2)2CO3 7 g of (NH4)2SO4, 0.5 g of KH2PO4, 0.5 g of K2HPO4, 0.5 g of MgSO4.7H2O, 1 mL of 0.06% (w/v) Fe2SO4.7H2O+0.042% (w/v) MnSO4.2H2O, 1 mL of 0.02% (w/v) biotin solution, 2 mL of 0.01% (w/v) thiamin solution, 2 g of yeast extract, 7 g of vitamin assay casamino acid, 40 g of glucose, and 15 g of agar were suspended in 1 L of distilled water) and was left stand in the dark at 33° C. for 15 hours.
An inoculation loop of the Corynebacterium glutamicum R grown on a plate as above was inoculated into a test tube containing 10 mL of A liquid medium (2 g of (NH2)2CO3 7 g of (NH4)2SO4, 0.5 g of KH2PO4, 0.5 g of K2HPO4, 0.5 g of MgSO4.7H2O, 1 mL of 0.06% (w/v) Fe2SO4.7H2O+0.042% (w/v) MnSO4.2H2O, 1 mL of 0.02% (w/v) biotin solution, 2 mL of 0.01% (w/v) thiamin solution, 2 g of yeast extract, 7 g of vitamin assay casamino acid, and 40 g of glucose were suspended in 1 L of distilled water) and was aerobically cultured with shaking at 33° C. for 15 hours.
The Corynebacterium glutamicum R grown in the above conditions was inoculated into 10 mL of A liquid medium in such a way that the initial bacterial cell concentration would be OD610=0.1, aniline was added at the same time in such a way that the final concentration would be 0, 20, 40, 60, or 80 mM, and aerobic culture was performed with shaking at 33° C. The growth of the bacterial cells was determined by absorbance measurement at OD610.
The vertical axis of FIG. 3 indicates OD610.

In another test the test system is Escherichia coli HST02. Put plainly: Growth inhibition experiment in aerobic culture, influence of aniline. In kind it is cell-based. The following applies: for growth of Escherichia coli HST02: aerobic culture 37° C., OD610. The procedure:
A growth inhibition experiment in aerobic culture was performed to examine the influence of aniline on Escherichia coli.
Escherichia coli HST02 was applied to LB agar medium (1% polypeptone, 0.5% yeast extract, 0.5% NaCl and 1.5% agar) and was left stand in the dark at 37° C. for 15 hours.
An inoculation loop of the Escherichia coli HST02 grown on a plate as above was inoculated into a test tube containing 10 mL of LB liquid medium (1% polypeptone, 0.5% yeast extract, and 0.5% NaCl), and aerobic culture was performed with shaking at 37° C. for 13 hours.
The Escherichia coli HST02 grown in the above conditions was inoculated into 100 mL of LB liquid medium in such a way that the initial bacterial cell concentration would be OD610=0.1, aniline was added at the same time in such a way that the final concentration would be 0, 20, 40, 60, or 80 mM, and aerobic culture was performed with shaking at 37° C. The growth of the bacterial cells was determined by absorbance measurement at OD610. […] The vertical axis of FIG. 2 indicates OD610.

As for `Nc1ccccc1` [aniline], the “growth of Corynebacterium glutamicum” value in test [1] (40 mM aniline) is “hardly affected”; in test [1] (60 mM aniline), “able to grow”. Moreover, in test [1] (aniline level increased up to 60 mM, aerobic culture), the “growth of coryneform bacterium” value is recorded as “can grow”. For the same compound, the “growth of Escherichia coli HST02” value in the test with Escherichia coli HST02 (20 mM aniline) is “notably inhibited”; in the test with Escherichia coli HST02 (40 mM aniline), “significantly inhibited; also recorded: significantly affected”; in the test on Escherichia coli HST02 (60 mM aniline) it was “completely inhibited”. For the same compound, the “growth of Escherichia coli” value in the test on Escherichia coli HST02 (aniline level of 20 mM or higher, aerobic culture) was “greatly affected”.
